Values of other authors in patent US20080317862A1, “Organic Compounds Comprising a Glycopyrrolium Salt” (priority 2005, published 2008).

Conditions: aerosol formulation for treating asthma, single administration of a metered dose

Structure (SMILES): C[N+]1(C)CCC(OC(=O)C(O)(c2ccccc2)C2CCCC2)C1.[Br-] (racemic) [glycopyrrolate, 3-[(cyclopentyl-hydroxyphenylacetyl)oxy]-1,1-dimethylpyrrolidinium bromide]
- duration of bronchodilation: up to 12 hours
